Reference: patent US20030092684A1, “Compositions and methods for treating hemorrhagic virus infections and other disorders” (priority 1999, published 2003)
Several values for one entry are separate records, joined by “and”; a condition that tells them apart may be missing. Equal entries are not always repeated. Where two headings read alike, the source gives them in different places.

Assays:
[1] = system: Lassa virus strain Josiah; set-up: species or system BALB/c mice; details: mouse, in vivo
[2] = 58 mg/kg i.m. during 17 day period without virus injection
[3] = system: Dengue virus, type 2; set-up: species or system BALB/c mice; details: mouse, in vivo, po
[4] = system: TNF-α and IL-1β; assay: Serum TNF and IL-1 in Dengue infected mice (Example 4); format: in vivo, BALB/c mice; details: for IL-1 / TNF: 20 mg/kg orally twice per day from day -3 until day 8
[5] = system: TNF-α and IL-1β; assay: Serum TNF-α and IL-1β in Dengue infected mice (Example 5); format: in vivo, BALB/c mice; details: 100 μg orally twice per day from day 3 until day 8
[6] = system: Marburg virus strain Popp; set-up: species or system guinea-pigs; details: guinea pig, in vivo
[7] = system: IL-1RA and sTNFrl; assay: IL-1RA and sTNFrl in human donor serum after oral antibiotic stimulation; format: in vivo; details: after stimulation, 2 persons, on the 24th hour
[8] = system: Dengue virus type 2; assay: Dengue virus infection treated with tetracycline compounds (Example 4): mortality; format: in vivo, BALB/c mice; details: 20 mg/kg orally twice per day from day -3 until day 8
[9] = system: mice with the SEB-induced septic shock; set-up: species or system Balb/c mice; details: mouse, in vivo
[10] = system: Mononuclear human cells; assay: In vitro activation of mononuclear human cells by antibiotics: IL-1RA and sTNFrI production; format: cell-based; details: 0.06 mg/ml, activation for 2 hours
[11] = 7 day period without viral infection

CN(C)C1C(O)=C(C(N)=O)C(=O)C2(O)C(O)=C3C(=O)c4c(O)cccc4C(C)(O)C3CC12 (stereo not drawn) [Tetracycline, 4-dimethylamino-1,4,4a,5,5a,6-11,12a-octahydro-3,6,10,12,12a-pentahydroxy-6-methyl-1,11-dioxo-2-naphthacenecarboxamide]
survival [1]: 80%
death ([1]; 58 mg/kg): 4
toxicity to control groups [2]: not toxic
survival ([2]; of 6 guinea pigs): 6
Survived/died [3]: 9/11
m.t.d. (average lifetime) [3]: 8.40 ± 0.73
increase of the concentration of TNF ([4]; 20 mg/kg orally twice per day): 2 fold
level of the cytokines in the serum versus control A2 group ([4]; 20 mg/kg twice per day from day -3 until day 8): statistically lower
increase of the concentration of IL-1 ([4]; by day 5 of the disease, 20 mg/kg orally twice per day): 10 fold
IL-1 ([4]; day 0): 6.8 pg/mL
IL-1 ([4]; day 1): 10.8 pg/mL
IL-1 ([4]; day 3): 46.8 pg/mL
TNF ([4]; day 3): 14.0 pg/mL
IL-1 ([4]; day 5): 66.0 pg/mL
TNF ([4]; day 5): 28.8 pg/mL
IL-1 ([4]; day 6): 56.8 pg/mL
TNF ([4]; day 6): 38.4 pg/mL
IL-1 ([4]; day 7): 10.2 pg/mL
TNF ([4]; day 7): 33 pg/mL
IL-1 ([4]; day 12): 7.4 pg/mL
TNF ([4]; day 12): 19.6 pg/mL
IL-1 ([4]; day -1): 6.8 pg/mL
TNF ([4]; day -1): 18.4 pg/mL
IL-1 ([5]; day 0): 6.0 pg/mL
TNF ([5]; day 0): 7.8 pg/mL
IL-1 ([5]; day 1): 12.0 pg/mL
TNF ([5]; day 1): 13.8 pg/mL
IL-1 ([5]; day 3): 36.0 pg/mL
TNF ([5]; day 3): 38.2 pg/mL
IL-1 ([5]; day 5): 48.6 pg/mL
TNF ([5]; day 5): 56.2 pg/mL
IL-1 ([5]; day 6): 62.4 pg/mL
TNF ([5]; day 6): 156.8 pg/mL
IL-1 ([5]; day 12): 15.6 pg/mL
TNF ([5]; day 12): 18.0 pg/mL
IL-1 ([5]; day 21): 5.8 pg/mL
TNF ([5]; day 21): 7.4 pg/mL
m.t.d. (mean time to death) [6]: 8.75 and 8.06 and 7.91
IL-1RA in the donor serum [7]: 130 ± 6.8 pg/mL
sTNFrl in the donor serum [7]: 580 ± 18.2 pg/mL
Survival/total amount ([8]; day 0): 20/20
Survival/total amount ([8]; day 1): 20/20
Survival/total amount ([8]; day 3): 20/20
Survival/total amount ([8]; day 5): 16/20
Survival/total amount ([8]; day 6): 11/20
Survival/total amount ([8]; day 7): 8/20
Survival/total amount ([8]; day 12): 8/20
Survival/total amount ([8]; day -1): 20/20
mice survived 96 hours postinduction [9]: About 20%
IL-1RA ([10]; 0 hours): 22 + 1.4 pg/ml
sTNFrI ([10]; 0 hours): 19 + 1.2 pg/ml
IL-1RA ([10]; 3 hours): 86 + 4.6 pg/ml
sTNFrI ([10]; 3 hours): 185 + 8.4 pg/ml
IL-1RA ([10]; 6 hours): 186 + 8.2 pg/ml
sTNFrI ([10]; 6 hours): 204 + 9.2 pg/ml
IL-1RA ([10]; 24 hours): 140 + 7.6 pg/ml
sTNFrI ([10]; 24 hours): 201 + 8.6 pg/ml
toxicity to control groups [11]: not toxic
death ([11]; of 20 mice): 0
survival ([11]; of 20 mice): 20
